# Experimental data: publication PMC12316891, “A bottom-up approach to find lead compounds in expansive chemical spaces” (Communications Chemistry, 2025)
# Assays:
# BRD4 (BD1) [1] = molecular target: T1, BRD4 (BD1) (Homo sapiens, UniProt O60885); assay: Differential scanning fluorimetry (DSF) single-dose thermal shift screening; assay type: binding; conditions: DSF, compound 10 µM, BRD4 (BD1) 2 µM, n = 3, decimal comma; read-out: ΔTm ºC at [10 µM]
# T1 construct: A pET28 plasmid containing residues 44–168 of BRD4 (BD1), a 6xHis tag, a TEV protease cleavage site; 6xHis (N, cleaved yes); made in house; host or cells: E. coli Rosetta (D3)
# His6-BRD4 (BD1) = molecular target: T2, His6-BRD4 (BD1) (Homo sapiens, UniProt O60885); assay: Surface plasmon resonance (SPR) single-dose screening; assay type: binding; set-up: key to SPR RESULT: Positive: compounds were considered as SPR hits also when their average signal was further than two standard deviations apart from the average signal of the blank samples (1% DMSO); conditions: for RUs at [10 µM]: SPR, compound 10 µM, 1% DMSO, n = 2, decimal comma; for SPR RESULT: single dose 10 µM, n = 2
# T2 construct: A pET28 plasmid containing residues 44–168 of BRD4 (BD1), a 6xHis tag, a TEV protease cleavage site; made in house; host or cells: E. coli Rosetta (D3)
# BRD4 (BD1) [2] = molecular target: T1, BRD4 (BD1); assay: Competitive HTRF TR-FRET binding assay (displacement of acetylated histone H4 peptide); conditions: for IC50: read-out: TR-FRET IC50; for IC50 by HTRF TR-FRET, range in words: potency range or dose-response behaviour
# [3] = 16-point titration 0.1 nM to 10 µM, n = 2, Negative = curve could not be fitted to a sigmoidal curve
Structure (SMILES),ΔTm at 10 µM (BRD4 (BD1) [1]) [°C],RUs at [10 µM] (His6-BRD4 (BD1)),SPR RESULT (His6-BRD4 (BD1)),IC50 (BRD4 (BD1) [2]; [3]) [nM],TR-FRET IC50 (nM) (BRD4 (BD1) [2]; [3]),"IC50 by HTRF TR-FRET, range in words (BRD4 (BD1) [2])"
"O=C(Nc1cccc(C(=O)N2CCC(Cn3cc(C4(O)CCOCC4)nn3)CC2)c1)c1ccco1 [Compound 84, OC1(CCOCC1)C2=CN(CC3CCN(CC3)C(=O)C=4C=CC=C(NC(=O)C5=CC=CO5)C4)N=N2]",1.16,"17,5 ± 1,9 RUs",Positive,18.1,,
"Cc1nc(=O)c(CCC(=O)N2CC3(CCCC3)c3ccccc32)c[nH]1 [Compound 85, CC1=NC(=O)C(CCC(=O)N2CC3(CCCC3)C=4C=CC=CC24)=CN1]",1.18,"24,26 ± 6,71 RUs",Positive,18,,
"CN(Cc1cccc(OC(F)F)c1)C(=O)C(=O)NC1CCN(C(=O)c2ccco2)c2ccccc21 (stereo not shown) [Compound 86, CN(CC=1C=CC=C(OC(F)F)C1)C(=O)C(=O)NC2CCN(C(=O)C3=CC=CO3)C=4C=CC=CC24]",0.94,"56,94 ± 25,46 RUs",Negative,,Negative,
"COC(=O)c1cc(CNC(=O)C=Cc2cnc(C)[nH]c2=O)ccc1Cl [Compound 87, COC(=O)C=1C=C(CNC(=O)C=CC2=CN=C(C)NC2=O)C=CC1Cl]",2.3,"15,1 ± 2,46 RUs",Positive,11.1,,low nM
"Cc1nnc(NC(=O)CNC(c2ccc(F)cc2)c2cnn(C)c2)s1 (stereo not shown) [Compound 88, CC1=NN=C(NC(=O)CNC(C=2C=NN(C)C2)C=3C=CC(F)=CC3)S1]",0.54,"4,11 ± 7,31 RUs",Negative,2260,,
"CC(NC(=O)CC1(C)CCCO1)C1(O)CN(C(=O)c2nsnc2O)C1 (stereo not shown) [Compound 89, CC(NC(=O)CC1(C)CCCO1)C2(O)CN(C2)C(=O)C3=NSN=C3O]",0.19,"-1,39 ± 0,54 RUs",Negative,155,,
"Cc1nonc1CC(=O)N1CC(CC(C)NC(=O)c2nsnc2O)C1 (stereo not shown) [Compound 90, CC(CC1CN(C1)C(=O)CC2=NON=C2C)NC(=O)C3=NSN=C3O]",0.43,"11,06 ± 3,73 RUs",Negative,213,,
"Cc1cn2cc(C(=O)NC(C)CC(C)NC(=O)c3ccsn3)sc2n1 (stereo not shown) [Compound 91, CC(CC(C)NC(=O)C1=CN2C=C(C)N=C2S1)NC(=O)C=3C=CSN3]",0.44,"8,08 ± 2,94 RUs",Negative,579,,
"COC(=O)C1(NCC(=O)Nc2nnc(C)s2)CC(C)(C)OC(C)(C)C1 [Compound 92, COC(=O)C1(CC(C)(C)OC(C)(C)C1)NCC(=O)NC2=NN=C(C)S2]",1.04,"8,96 ± 1,15 RUs",Negative,622,,
"Cc1cc(C)n2nc(CNC(=NCCCN3CCOCC3)N3CCC(NC(=O)CBr)C3)nc2n1 (stereo not shown) [Compound 93, BrCC(=O)NC1CCN(C1)C(=NCCCN2CCOCC2)NCC=3N=C4N=C(C)C=C(C)N4N3]",-0.58,"20,44 ± 23,06 RUs",Negative,470,,
"Cc1ccc(-n2c(C)nnc2SCC(=O)N2CCOCCC23COC3)cc1 [Compound 94, CC1=NN=C(SCC(=O)N2CCOCCC32COC3)N1C=4C=CC(C)=CC4]",1.19,"3,87 ± 1,96 RUs",Negative,27.9,,low nM
